Results reported in patent US20250320206A1, “STAT6 DEGRADERS” (Gilead Sciences, Inc., priority 2024, published 2025).

Legend:
[1] = target: T1, STAT6 (Homo sapiens, UniProt P42226); experiment: Stat6 Degrader Assay (HiBiT based, HeLa LgBiT clone 4.14); format: cell-based; details: HeLa LgBiT clone 4.14 HiBiT-STAT6, 4-24 h incubation; values given for compounds with >80% Emax; geometric mean; read-out: STAT6 degradation DC50
T1 construct: These cells express endogenous STAT6; host or cells: HeLa LgBiT clone 4.14
T1 sequence (P42226 1-847): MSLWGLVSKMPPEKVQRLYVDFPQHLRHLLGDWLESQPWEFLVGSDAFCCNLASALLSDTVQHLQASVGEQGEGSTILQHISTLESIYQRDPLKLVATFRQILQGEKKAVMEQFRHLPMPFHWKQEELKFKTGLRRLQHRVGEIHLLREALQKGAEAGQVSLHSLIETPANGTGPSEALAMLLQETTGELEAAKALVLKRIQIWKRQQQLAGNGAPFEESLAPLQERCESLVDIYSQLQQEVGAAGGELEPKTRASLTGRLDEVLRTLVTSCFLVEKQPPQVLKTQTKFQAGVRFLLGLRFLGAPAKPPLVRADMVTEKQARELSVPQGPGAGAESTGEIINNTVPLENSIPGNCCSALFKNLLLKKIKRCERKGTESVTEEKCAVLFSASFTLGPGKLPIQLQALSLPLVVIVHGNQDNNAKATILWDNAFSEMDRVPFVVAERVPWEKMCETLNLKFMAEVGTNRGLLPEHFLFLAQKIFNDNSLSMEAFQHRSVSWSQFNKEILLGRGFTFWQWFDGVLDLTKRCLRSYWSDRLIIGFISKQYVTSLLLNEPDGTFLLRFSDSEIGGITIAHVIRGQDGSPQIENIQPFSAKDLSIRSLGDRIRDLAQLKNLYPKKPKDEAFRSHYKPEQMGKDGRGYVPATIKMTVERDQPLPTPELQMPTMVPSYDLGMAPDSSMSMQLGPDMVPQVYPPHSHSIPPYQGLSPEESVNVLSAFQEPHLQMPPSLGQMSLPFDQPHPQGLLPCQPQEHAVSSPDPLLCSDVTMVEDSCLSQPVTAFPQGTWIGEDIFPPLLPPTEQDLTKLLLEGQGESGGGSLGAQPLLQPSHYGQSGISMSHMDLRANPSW
In short: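 HeLa LgBiT clone 4.14 cells with CRISPR HiBiT-tagged endogenous STAT6, 5000 cells/well, compound dosed then incubated 4-24 h at 37° C, 5% CO2. Nano-Glo substrate added, 0.5 h, luminescence read as non-degraded STAT6. Terfenadine 50 μM (cell kill) defines 100% degradation.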

[2] = test system: Eotaxin-3 release in human whole blood stimulated with IL-4; experiment: Human Whole Blood Eotaxin-3 Assay (IL-4 stimulated eotaxin-3 release); format: cell-based; details: IL-4 stimulation, 48 h, values given for compounds with >80% Emax, geometric mean
In short: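 Lithium-heparin human whole blood preincubated 2 h at 37° C with 4-fold serially diluted compounds (0.5% DMSO), then stimulated with recombinant human IL-4 ([…]) for 48 h. Eotaxin-3 (CCL26) in supernatant quantified by MSD immunoassay.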

| SMILES | DC50 [1] | EC50 [2] |
| --- | --- | --- |
| Cc1cc(C(=O)N2CCC(CN3CCN(Cc4ccc5c(c4)n(C)c(=O)n5C4CCC(=O)NC4=O)C[C@@H]3C)CC2)cc(F)c1C1=CCN([C@@H](C)c2cc3c(-n4ccc5c(c4=O)CCN5)ccnc3n2C)CC1 (stereo partly drawn) [Example 3u137, 3-(5-(((S)-4-((1-(3-fluoro-5-methyl-4-(1-((S)-1-(1-methyl-4-(4-oxo-1,2,3,4-tetrahydro-5H-pyrrolo[3,2-c]pyridin-5-yl)-1H-pyrrolo[2,3-b]pyridin-2-yl)ethyl)-1,2,3,6-tetrahydropyridin-4-yl)benzoyl)piperidin-4-yl)methyl)-3-methylpiperazin-1-yl)methyl)-3-methyl-2-oxo-2,3-dihydro-1H-benzo[d]imidazol-1-yl)piperidine-2,6-dione] | 0.2 nM | 0.4 nM |
| CNc1ccn(-c2ccnc3c2cc([C@H](C)N2CC=C(c4c(C)cc(C(=O)N5CCC(CN6CCN(Cc7ccc8c(c7)n(C)c(=O)n8[C@H]7CCC(=O)NC7=O)C[C@@H]6C)CC5)cc4F)CC2)n3C)c(=O)c1 (single isomer, unassigned) [Example 3u33] | 0.2 nM | 0.3 nM |
| CNc1cc(=O)n(-c2ccnc3c2cc([C@H](C)N2CC=C(c4c(F)cc(C(=O)N5CCC(CN6CCN(Cc7ccc8c(c7)n(C7CC7)c(=O)n8C7CCC(=O)NC7=O)C[C@@H]6C)CC5)cc4F)CC2)n3C)cc1F (stereo partly drawn) [Example 3u128, 3-(3-cyclopropyl-5-(((S)-4-((1-(3,5-difluoro-4-(1-((S)-1-(4-(5-fluoro-4-(methylamino)-2-oxopyridin-1 (2H)-yl)-1-methyl-1H-pyrrolo[2,3-b]pyridin-2-yl)ethyl)-1,2,3,6-tetrahydropyridin-4-yl)benzoyl)piperidin-4-yl)methyl)-3-methylpiperazin-1-yl)methyl)-2-oxo-2,3-dihydro-1H-benzo[d]imidazol-1-yl)piperidine-2,6-dione] | 1.1 nM | 1.6 nM |
| CNc1ccn(-c2ccnc3c2cc(CN2CCC(c4c(F)cc(C(=O)N5CCC(CN6CCN(Cc7ccc8c(c7)C7(CC7)C(=O)N8[C@@H]7CCC(=O)NC7=O)C[C@@H]6C)CC5)cc4F)CC2)n3C)c(=O)c1 (single isomer, unassigned) [Example 3u224] | 1.3 nM | 1.5 nM |
| CNc1ccn(-c2ccnc3c2cc(CN2CCC(c4c(F)cc(C(=O)N5CCC(CN6CCN(Cc7cc8c(cc7F)N(C7CCC(=O)NC7=O)C(=O)C87CC7)CC6)CC5)cc4F)CC2)n3C)c(=O)c1 (stereo not drawn) [Example 3u42, 3-(5′-((4-((1-(3,5-difluoro-4-(1-((1-methyl-4-(4-(methylamino)-2-oxopyridin-1 (2H)-yl)-1H-pyrrolo[2,3-b]pyridin-2-yl)methyl)piperidin-4-yl)benzoyl)piperidin-4-yl)methyl)piperazin-1-yl)methyl)-6′-fluoro-2′-oxospiro[cyclopropane-1,3′-indolin]-1′-yl)piperidine-2,6-dione] | 13.2 nM | 13.8 nM |
| CNc1cc(=O)n(-c2ccnc3c2cc(CN2CCC(c4c(F)cc(C(=O)N5CCC(CN6CCN(Cc7ccc8c(c7)C(C)(C)C(=O)N8[C@@H]7CCC(=O)NC7=O)C[C@@H]6C)CC5)cc4F)CC2)n3C)cc1F (single isomer, unassigned) [Example 3u50] | 0.9 nM | 30.2 nM |
| CNc1ccn(-c2ccnc3c2cc([C@H](C)N2CC=C(c4c(C)cc(C(=O)N5CCC(CN6CCN(Cc7cc8c(cc7F)n([C@@H]7CCC(=O)NC7=O)c(=O)n8C)C[C@@H]6C)CC5)cc4F)CC2)n3C)c(=O)c1 (single isomer, unassigned) [Example 3u209] | 7.3 nM | 0.7 nM |
| C[C@H]1CN(Cc2ccc3c(c2)n(C2CC2)c(=O)n3C2CCC(=O)NC2=O)CCN1CC1CCN(C(=O)c2cc(F)c(C3CCN([C@@H](C)c4cc5c(-n6ccc7c(c6=O)CCN7)ccnc5n4C)CC3)c(F)c2)CC1 (stereo partly drawn) [Example 3u196, 3-(3-cyclopropyl-5-(((S)-4-((1-(3,5-difluoro-4-(1-((S)-1-(1-methyl-4-(4-oxo-1,2,3,4-tetrahydro-5H-pyrrolo[3,2-c]pyridin-5-yl)-1H-pyrrolo[2,3-b]pyridin-2-yl)ethyl)piperidin-4-yl)benzoyl)-piperidin-4-yl)methyl)-3-methylpiperazin-1-yl)methyl)-2-oxo-2,3-dihydro-1H-benzo[d]imidazol-1-yl)-piperidine-2,6-dione] | 0.3 nM | 0.5 nM |
| C[C@H]1CN(Cc2ccc3c(c2)C(C)(C)C(=O)N3[C@@H]2CCC(=O)NC2=O)CCN1CC1CCN(C(=O)c2ccc(C3CCN([C@@H](C)c4cc5c(-n6ccc7c(c6=O)CCN7)ccnc5n4C)CC3)cc2)CC1 (single isomer, unassigned) [Example 3u186] | 3.5 nM | 4.6 nM |
| CNc1ccn(-c2ccnc3c2cc(CN2CC=C(c4c(C)cc(C(=O)N5CCC(CN6CCN(Cc7ccc8c(c7)C(C)(C)C(=O)N8C7CCC(=O)NC7=O)C[C@@H]6C)CC5)cc4F)CC2)n3C)c(=O)c1 (stereo partly drawn) [Example 3u178, 3-(5-(((S)-4-((1-(3-fluoro-5-methyl-4-(1-((1-methyl-4-(4-(methylamino)-2-oxopyridin-1 (2H)-yl)-1H-pyrrolo[2,3-b]pyridin-2-yl)methyl)-1,2,3,6-tetrahydropyridin-4-yl)benzoyl)piperidin-4-yl)methyl)-3-methylpiperazin-1-yl)methyl)-3,3-dimethyl-2-oxoindolin-1-yl)piperidine-2,6-dione] | 5.6 nM | 7.7 nM |
| CNc1cc(=O)n(-c2ccnc3c2cc(CN2CCC(c4c(F)cc(C(=O)N5CCC(CN6CCN(Cc7ccc8c(c7)C7(CC7)C(=O)N8C7CCC(=O)NC7=O)C[C@@H]6C)CC5)cc4F)CC2)n3C)cc1F (stereo partly drawn) [Example 3u219, 3-(5′-(((S)-4-((1-(3,5-difluoro-4-(1-((4-(5-fluoro-4-(methylamino)-2-oxopyridin-1 (2H)-yl)-1-methyl-1H-pyrrolo[2,3-b]pyridin-2-yl)methyl)piperidin-4-yl)benzoyl)piperidin-4-yl)methyl)-3-methylpiperazin-1-yl)methyl)-2′-oxospiro[cyclopropane-1,3′-indolin]-1′-yl)piperidine-2,6-dione] | 1.8 nM | 2.2 nM |
| CNc1ccn(-c2ccnc3c2cc([C@H](C)N2CCC(c4ccc(C(=O)N5CCC(CN6CCN(Cc7ccc8c(c7)C7(CC7)C(=O)N8C7CCC(=O)NC7=O)C[C@@H]6C)CC5)cc4)CC2)n3C)c(=O)c1 (mixture of isomers) [Example 3u5, 3-(5′-(((S)-3-methyl-4-((1-(4-(1-((S)-1-(1-methyl-4-(4-(methylamino)-2-oxopyridin-1 (2H)-yl)-1H-pyrrolo[2,3-b]pyridin-2-yl)ethyl)piperidin-4-yl)benzoyl)piperidin-4-yl)methyl)piperazin-1-yl)-methyl)-2′-oxospiro[cyclopropane-1,3′-indolin]-1′-yl)piperidine-2,6-dione] | 1 nM | 0.8 nM |
| CNc1ccn(-c2ccnc3c2cc([C@H](C)N2CCC(c4c(F)cc(C(=O)N5CCC(CN6CCN(Cc7ccc8c(c7)C(C)(C)C(=O)N8[C@@H]7CCC(=O)NC7=O)C[C@@H]6C)CC5)cc4F)CC2)n3C)c(=O)c1 (single isomer, unassigned) [Example 3u82] | 1.1 nM | 1.1 nM |
| CNc1ccn(-c2ccnc3c2cc(CN2CCC(c4c(F)cc(C(=O)N5CCC(CN6CCN(Cc7ccc8c(c7)n(C)c(=O)n8C7CCC(=O)NC7=O)CC6)CC5)cc4F)CC2)n3C)c(=O)c1 (stereo not drawn) [Example 3u29, 3-(5-((4-((1-(3,5-difluoro-4-(1-((1-methyl-4-(4-(methylamino)-2-oxopyridin-1 (2H)-yl)-1H-pyrrolo[2,3-b]pyridin-2-yl)methyl)piperidin-4-yl)benzoyl)piperidin-4-yl)methyl)piperazin-1-yl)methyl)-3-methyl-2-oxo-2,3-dihydro-1H-benzo[d]imidazol-1-yl)piperidine-2,6-dione] | 1.7 nM | 0.9 nM |
| CNc1cc(=O)n(-c2ccnc3c2cc(CN2CCC(c4c(F)cc(C(=O)N5CCC(CN6CCN(Cc7cc8c(cc7F)N([C@@H]7CCC(=O)NC7=O)C(=O)C87CC7)CC6)CC5)cc4F)CC2)n3C)cc1F (single isomer, unassigned) [Example 3u95] | 18.6 nM | 12.4 nM |
